Laboratory results as given in patent EP4745145A1, “SALT OF THIAZOLOPYRAZINE COMPOUND OR CRYSTAL THEREOF AND USE THEREOF” (Simcere Zaiming Pharmaceutical Co., Ltd., priority 2023, dated 2025).

Assays:
[1] = test system: DLD-1 BRCA2 (-/-) cells; experiment: Inhibition of tumor cell proliferation (CTG, 7 days); assay type: cell-based
Description: (§1) Brief introduction to experimental principle: After the compound was co-incubated with tumor cells for 7 days, the ATP in viable cells was quantified using the CTG kit from Promega to reflect the effect of the compound on tumor cell proliferation.
(§2) Experimental methods: DLD-1 parent cells or DLD-1 BRCA2 (-/-) cells were diluted with an RPMI 1640 medium containing 10% FBS and then added to a 96-well plate (90 µL/well), with the number of cells being 600/well or 1200/well, respectively, and incubated overnight in an incubator at 37 °C with 5% CO2. The test compound was diluted to different concentrations with dimethyl sulfoxide (DMSO) and then added to a 96-well plate, such that, in the reaction system, the compound was serially diluted 4-fold from the final concentration of 25 µM. The concentration range of the compound was from 25 µM to 0.0004 µM, and the final concentration of DMSO was 0.25% v/v. After incubation for 7 days, 50 µL/well of CTG was added, and the mixture was incubated at room temperature for 10 min. The luminescence (Lum) signal value was read using an Envision microplate reader, and the inhibition rate and half inhibitory concentration (IC50) were calculated.
(§3) A Blank well and a DMSO well were set in the experiment. […] Inhibition rate = 100 × (Lummax−Lumcompound)/(Lummax−Lummin)% [formula] wherein Lummax refers to the luminescence signal value of the well containing cells and 0.25% v/v DMSO, and Lumcompound refers to the luminescence signal value of the well containing the compound and cells. Lummin refers to the luminescence signal value of the well containing the medium and 0.25% v/v DMSO.

[2] = test system: DLD-1 parent cells; experiment: as above; assay type: cell-based; details: Homo sapiens, DLD-1, 168 h; 7 days incubation
Description: as §1, §2, §3

[3] = test system: POLQ-mediated MMEJ pathway; experiment: Inhibition of cellular MMEJ pathway (NanoLuciferase reporter in HEK293T cells); assay type: cell-based; details: 24 h
Description: Brief introduction to experimental principle: POLQ is a key protein in the repair process of cellular MMEJ. The NanoLuciferase MMEJ repair reporter system was transferred into HEK293T cells. When the MMEJ repair pathway was normally performed in the cells, the NanoLuciferase reporter protein was correctly expressed, and the cell luminescence signal could be detected. The decrease in cell luminescence was measured using a BMG multifunctional microplate reader from BMG LABTECH to reflect the inhibition of the compound on the cellular MMEJ pathway.
Experimental methods: The test compound was diluted to different concentrations with dimethyl sulfoxide (DMSO) using an Echo 655 pipetting system and transferred to a 384-well plate. In the reaction system, the compound was serially diluted 3-fold from the final concentration of 10 µM. The final concentration of DMSO was 0.1%. HEK293T cells were collected, an MMEJ luciferase […] was transferred to the cells using a Neon transfection system, and the transfected HEK293T cells at 4000 cells/well were diluted with a DMEM medium containing 10% FBS and added to a 384-well plate (25 µL/well).
The compound inhibition rate was calculated and fitted using XLfit software to give the IC50 of the compounds. A Blank well and a DMSO well were set in the experiment.

[4] = test system: hepatocytes; experiment: Metabolic stability in hepatocytes; assay type: in vitro ADME; details: hepatocytes of various species
Description: The metabolic stability of the compounds of the present disclosure in hepatocytes was determined by the following test method.
• 1. Human hepatocytes (Biopredic BQHPCH10), cynomolgus monkey hepatocytes (RILD HP-SXH-02M), Beagle dog hepatocytes (BioIVT M00205), SD rat hepatocytes (BioIVT M00005), and CD-1 mouse hepatocytes (BioIVT M00505) • 2. AOPI stain (Nexcelom 200710-01-01) • 3. Dexamethasone (NIFDC 100129-201506) • 4. DPBS (10×) (Gibco by Life Technologies 2060570) • 5. Fetal bovine serum (FBS) (Corning 35081001) • 6. GlutaMAXTM-1 (100×) (Gibco by Life Technologies 2186980) • 7. HEPES (Sigma RNBJ1276) • 8. Human recombinant insulin (Gibco by Life Technologies 2090407) • 9. Isotonic Percoll (GE Healthcare 10288259) • 10. Verapamil (Sigma MKBV4993V) • 11. Williams' Medium E (Sigma RNBJ3314) • 12. […]
All data were calculated by Microsoft Excel software. The peak area was detected through an extracted ion chromatogram. The in vitro half-life (t1/2) of the compound was determined by performing linear fitting of the natural logarithm of elimination percent of the compound and time.
In vitro half-life (t1/2) was calculated by the slope: in vitro t1/2 = 0.693/k [formula]
The in vitro intrinsic clearance (unit: µL/min/mg protein) was calculated using the following formula: in vitro CLint = k × volume of incubation (μL)/amount of proteins (mg) [formula] […]

`COc1ccc(Cl)cc1-c1cc(C)ncc1C(=O)Nc1nc2ncc(-c3ccc(C#N)cc3)nc2s1` [Compound of formula I, 4-(5-chloro-2-methoxyphenyl)-N-[6-(4-cyanophenyl)thiazolo[4,5-b]pyrazin-2-yl]-6-methylnicotinamide] was tested, and the “inhibitory effect on tumor cells with BRCA2 mutation” value [1] was “good inhibitory effect”, the selectivity [1] was “good selectivity” and the IC50 ([1]; Homo sapiens, DLD-1, 168 h, 7 days incubation) was < 0.2 µM. For the same molecule, the IC50 [2] was ≥ 10 µM, the “inhibitory activity on the POLQ-mediated MMEJ pathway in cells” value [3] was “strong inhibitory activity” and the “metabolic stability in hepatocytes” value [4] was “metabolically stable”.
